These results are taken from patent publication US5073641A, “Prodrug derivatives of carboxylic acid drugs” (priority 1986, dated 1991).

As a reminder, the half-life is the time needed for the level to fall by half in the phase considered.

For series [1] the following is noted: cited from earlier work.
The conditions of series [2]: cited from earlier work. The source holds these as a separate data set.
Series [3] can be described thus: Stability in acidic media (0.01M HCl). The series is classed as physicochemical. As to conditions: 37° C., read-out: hydrolysis in 0.01M HCl.
Series [4] is described as follows: Hydrolysis in aqueous buffer solution pH 7.4. The series is classed as physicochemical. As to conditions: pH 7.4, 37° C., read-out: half-life of hydrolysis in pure buffer solution.
Protocol: Solutions of various derivatives of this invention in aqueous buffer solutions or 50-80% human plasma solutions (pH 7.4) were kept at 37° C. The initial concentration of the derivatives was in the range 3×10^-4 -10^-5 M. At various times an aliquot of the solutions was withdrawn and analyzed by HPLC for remaining derivative as well as for parent acid. For the plasma solutions the aliquot withdrawn was deproteinized with methanol, ethanol or acetonitrile and after centrifugation, the clear supernatant was injected on HPLC.
An HPLC method was used for the determination of the ester derivatives and their parent acids. In this method a reversed-phase LiChrosorb RP-8 column (250×4 mm) was eluted at ambient temperature with mixtures of methanol and 0.01M acetate buffer pH 5.0, methanol and 0.01M phosphate buffer pH 4.5 or methanol and 0.02M phosphate buffer pH 3.5. the composition of the eluant was adjusted for each compound in order to provide an appropriate retention time and separation of ester and the corresponding acid. The flow-rate was 0.6-1.6 ml/min and the column effluent was monitored spectrophotometrically at an appropriate wavelength. Quantitation of the compounds was done by measurement of the peak heights in relation to those of standards chromatographed under the same conditions.

Some results are limits rather than exact numbers.

With `CCOC(=O)[C@H](CCc1ccccc1)N[C@@H](C)C(=O)N1CCC[C@H]1C(=O)O` [Enalapril], in series [1], the “hydrolysis by plasma enzymes / stability in plasma” value is reported as “Plasma enzymes do not hydrolyze the ester”. Besides, the “availability of the active parent acid” value in series [2] (Todd & Heel, 1986) is “incomplete availability of the active parent acid”.
Take `CCN(CC)C(=O)COC(=O)c1ccccc1` [Example 10, 2-(benzoyloxy)-N,N-diethylacetamide]: the “S, solubility in water” value turned out to be 2000 µg/mL. In series [3], the degraded at 3 h was below 1%. Moreover, the half-life in series [4] is above 41.7 days.
`CCOC(=O)[C@H](C)C[C@@H](C)C(=O)N1c2ccccc2C[C@H]1C(=O)O` [Pentopril]: the “hydrolysis by plasma enzymes / stability in plasma” value in series [1] was “highly stable in human plasma”. Moreover, the “part of oral dose deesterified in vivo to the active parent acid” value in series [2] (oral, Rakhit & Tipnis, 1985) is “less than 50%”.
